Experiments:
[1] = tested on: standard normal pooled plasma; assay: CloFAL assay, heparin studies and heparinase reversal; format: biochemical, human
From the text: The assay described here was modified from those of He et al. (1999) and Smith et al. (2003). As compared to that by Smith et al., which evaluates only fibrinolysis, the CloFAL assay permits assessment of coagulability as well. Furthermore, when compared to the global assay of He et al., the CloFAL assay permits testing with a single reagent to evaluate both coagulation and fibrinolysis, rather than requiring (as does that of He et al.) the preparation of two distinct reagents for separate evaluation of the plasma sample. […] Frozen plasma aliquots were thawed in a 37° C. water bath for three minutes. […]
For each patient sample to be analyzed, 75 μL of freeze-thawed or fresh plasma was dispensed into each of three wells in a round-bottom, 96-well, Nunc assay plate (Fisher Scientific, Santa Clara, Calif.), and then pre-warmed at 37° C. for three minutes. […] The plate was then immediately placed in an eight-channel microplate spectrophotometer (PowerWave HT, Bio-Tek Instruments, Winooski, Vt.) for dual kinetic absorbance measurements at 405 nm and 630 nm at 45-second intervals for 3 hours, following an initial five-second mixing step prior to the first reading. The spectrophotometer interfaced with a computer such that all its operations, including continuous analysis of delta-absorbance (405 nm minus 630 nm) data using KC4™ PC software, may be automated. […]

[2] = tested on: standard normal pooled plasma; assay: CloFAL assay, altered fibrinolysis studies in treated standard normal pooled plasma; format: biochemical, human; settings: TAFIa inhibition by PTCI, final plasma concentration 50 μg/mL
Method: Frozen plasma aliquots were thawed in a 37° C. water bath for three minutes. […] Plasma samples (fresh or freeze-thawed) were maintained for up to 30 minutes in an ice-water bath until time of assay. […]
The kinetic absorbance data was exported to Microsoft Excel and absorbance measurements at each time point were averaged for the triplicate runs of each specimen. Using the averaged absorbance for the specimen, the maximum amplitude of rise in absorbance was determined (MA=maximum absorbance minus baseline absorbance, where baseline absorbance was obtained by averaging the third through eighth kinetic readings). […]

Substance	rise in absorbance of the CloFAL curve ([1]; heparin at 2 U/mL in standard normal pooled plasma)	rise in absorbance of the CloFAL curve ([1]; heparin concentrations of as little as 0.1 U/mL)	FI (fibrinolytic index) [2]	duration of the first phase of decline in turbidity in the CloFAL curve [2]
heparin	greatly prevented	prolongation and attenuation	–	–
PTCI: potato tuber carboxypeptidase inhibitor (Sigma-Aldrich), blocks TAFI activation to enhance fibrinolysis (QQHADPICNKPCKTHDDCSGAWFCQACWNSARTCGPYVG; UniProt P01075 1-39, looked up)	–	–	increased	prolonged

From patent US20080268483A1, “Methods for a Global Assay of Coagulation and Fibrinolysis” (The Regents of the University of Colorado, priority 2004, published 2008)
